This note sets out measurements from ChEMBL document CHEMBL1130503, “Synthesis and antibacterial activity of some thio trinems” (Bioorg Med Chem Lett, 1997).

The subject of one data set is Clostridium perfringens. Description: The compound was tested in vitro for the antibacterial activity against Clostridium perfringens 615E strain, activity expressed as MIC. It is filed as functional.
A further data set concerns Bacteroides fragilis. In words: The compound was tested in vitro for the antibacterial activity against Bacteroides fragilis 2017 strain, activity expressed as MIC. The data set is classed as functional.
In data set [1] the test system is Staphylococcus aureus. In words: The compound was tested in vitro for the antibacterial activity against Staphylococcus aureus 663E strain, activity expressed as MIC. The data set is classed as functional.
For data set [2], the system named is Escherichia coli. In words: The compound was tested in vitro for the antibacterial activity against Escherichia coli 1919 beta-lactamase producing strain, activity expressed as MIC. It is filed as functional.
For data set [3], the system named is Staphylococcus aureus. In words: The compound was tested in vitro for the antibacterial activity against Staphylococcus aureus 853E beta-lactamase producing strain, activity expressed as MIC. The data set is classed as functional.
Data set [4] deals with Escherichia coli. In words: The compound was tested in vitro for the antibacterial activity against Escherichia coli 1850E strain, activity expressed as MIC. It is filed as functional.
Data set [5] relates to renal dehydropeptidase I (DHP-I). Description: Tested for Biological half life in human plasma (stability to human renal dehydropeptidase I,DHP-I). The data set is classed as ADME, cell-free.
The test system is the same in data set [6]. Description: Biological half life in human plasma (stability to human renal dehydropeptidase I,DHP-I). It is filed as ADME, cell-free.
[7] abbreviates: Clostridium perfringens, read-out: MIC.

As a reminder, the MIC is the lowest concentration found to suppress growth. Usually half-life stands for how long it takes for the measured level to halve.

In brackets after ≈: the same amount, converted by molar mass.

In the case of `C[C@@H](O)[C@H]1C(=O)N2C(C(=O)[O-])=C3CCCS[C@@H]3[C@H]12.[Na+]`, the MIC was 30 µg/mL with Clostridium perfringens (setting [7]); 0.25 µg/mL with Bacteroides fragilis (Bacteroides fragilis); 1 µg/mL against Staphylococcus aureus [1] (Staphylococcus aureus); 0.5 µg/mL against Escherichia coli [2] (Escherichia coli); 1 µg/mL with Staphylococcus aureus [3] (Staphylococcus aureus); 0.5 µg/mL in the data set with Escherichia coli [4] (Escherichia coli).

As to `CS[C@H]1CCS[C@H]2C1=C(C(=O)[O-])N1C(=O)[C@H]([C@@H](C)O)[C@@H]21.[Na+]`, the half-life in data set [5] was 386 min. The MIC was at most 10 µg/mL in the data set with Clostridium perfringens (setting [7]); 0.2 µg/mL against Bacteroides fragilis (Bacteroides fragilis); 0.2 µg/mL against Staphylococcus aureus [1] (Staphylococcus aureus); 1 µg/mL in the data set on Escherichia coli [2] (Escherichia coli); 0.5 µg/mL against Staphylococcus aureus [3] (Staphylococcus aureus); 2 µg/mL against Escherichia coli [4] (Escherichia coli).

In data set [5], `C=CCOC(=O)C1=C2SCCC[C@H]2[C@@H]2[C@@H]([C@@H](C)O)C(=O)N12` had a half-life of 10 min. Moreover, the MIC in the data set with Clostridium perfringens (setting [7]) turned out to be 500 µg/mL (≈ 1620 µM); in the data set on Staphylococcus aureus [1] (Staphylococcus aureus) it was 1 µg/mL (≈ 3.23 µM); with Escherichia coli [2] (Escherichia coli) it was 2 µg/mL (≈ 6.46 µM); against Staphylococcus aureus [3] (Staphylococcus aureus) it was 1 µg/mL (≈ 3.23 µM); in the data set with Escherichia coli [4] (Escherichia coli), 1 µg/mL (≈ 3.23 µM).

Consider `C[C@@H](O)[C@H]1C(=O)N2C(C(=O)[O-])=C3CCSCC3[C@H]12.[K+]` (stereo in doubt; 15a), for which the MIC in the data set with Clostridium perfringens was 1000 µg/mL; with Bacteroides fragilis, 0.12 µg/mL; in the data set on Staphylococcus aureus [1] (Staphylococcus aureus), 1 µg/mL; against Escherichia coli [2] (Escherichia coli), 2 µg/mL; with Staphylococcus aureus [3] (Staphylococcus aureus) it was 1 µg/mL; with Escherichia coli [4] (Escherichia coli), 4 µg/mL. For the same compound, in data set [6], the half-life was found to be 12 min.

In data set [5], `C[C@@H](O)[C@H]1C(=O)N2C(C(=O)[O-])=C3CCSCC3[C@H]12.[K+]` (stereo in doubt; 15b) gave a half-life below 7 min. The MIC is 250 µg/mL in the data set with Clostridium perfringens; 0.5 µg/mL in the data set on Bacteroides fragilis; 1 µg/mL against Staphylococcus aureus [1]; 1 µg/mL with Escherichia coli [2]; 0.5 µg/mL with Staphylococcus aureus [3]; 4 µg/mL against Escherichia coli [4].

With `C[C@@H](O)[C@H]1C(=O)N2C(C(=O)O)=C(SCCNC=N)C[C@H]12` [IMIPENEM ANHYDROUS], the MIC turned out to be 30 µg/mL (≈ 100 µM) in the data set on Clostridium perfringens (setting [7]); 0.12 µg/mL (≈ 0.401 µM) with Bacteroides fragilis (Bacteroides fragilis); 0.06 µg/mL (≈ 0.2 µM) in the data set on Staphylococcus aureus [1] (Staphylococcus aureus); 0.5 µg/mL (≈ 1.67 µM) in the data set on Escherichia coli [2] (Escherichia coli); 0.12 µg/mL (≈ 0.401 µM) against Staphylococcus aureus [3] (Staphylococcus aureus); 0.5 µg/mL (≈ 1.67 µM) against Escherichia coli [4] (Escherichia coli).
